Assay results as given in ChEMBL document CHEMBL3882726, “Pyrimidine Derivatives As Kinase Modulators and Method of Use” (2008).

Biological target: Insulin-like growth factor 1 receptor (Homo sapiens, UniProt P08069)
Assay: Inhibition of human IGF1R kinase domain (M954 to C1367 residues) tri-phosphorylated enzyme form expressed in baculovirus based expression system using poly-EY peptide incubated for 2 hrs by luciferase-luciferin coupled chemiluminescent assay

Insulin-like growth factor 1 receptor, sequence (P08069 31-736 limits assumed): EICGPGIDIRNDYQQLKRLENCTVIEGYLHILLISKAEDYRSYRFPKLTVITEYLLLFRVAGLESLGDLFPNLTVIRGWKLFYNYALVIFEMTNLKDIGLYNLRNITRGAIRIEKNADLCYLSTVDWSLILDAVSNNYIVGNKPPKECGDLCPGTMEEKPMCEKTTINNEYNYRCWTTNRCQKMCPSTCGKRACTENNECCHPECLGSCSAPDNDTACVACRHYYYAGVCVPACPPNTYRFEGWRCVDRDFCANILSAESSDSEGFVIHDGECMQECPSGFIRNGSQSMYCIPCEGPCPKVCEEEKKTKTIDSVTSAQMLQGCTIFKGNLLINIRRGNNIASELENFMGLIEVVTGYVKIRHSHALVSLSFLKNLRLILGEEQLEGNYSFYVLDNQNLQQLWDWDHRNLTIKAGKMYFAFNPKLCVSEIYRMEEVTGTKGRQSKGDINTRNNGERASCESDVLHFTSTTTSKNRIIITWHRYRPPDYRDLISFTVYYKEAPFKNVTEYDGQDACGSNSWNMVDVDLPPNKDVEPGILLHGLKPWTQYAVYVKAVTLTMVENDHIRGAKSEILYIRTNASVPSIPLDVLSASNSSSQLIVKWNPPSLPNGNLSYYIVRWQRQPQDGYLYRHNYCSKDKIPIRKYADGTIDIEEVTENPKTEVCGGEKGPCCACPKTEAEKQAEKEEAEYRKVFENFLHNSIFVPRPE
Insulin-like growth factor 1 receptor, sequence (P08069 741-1367 limits assumed): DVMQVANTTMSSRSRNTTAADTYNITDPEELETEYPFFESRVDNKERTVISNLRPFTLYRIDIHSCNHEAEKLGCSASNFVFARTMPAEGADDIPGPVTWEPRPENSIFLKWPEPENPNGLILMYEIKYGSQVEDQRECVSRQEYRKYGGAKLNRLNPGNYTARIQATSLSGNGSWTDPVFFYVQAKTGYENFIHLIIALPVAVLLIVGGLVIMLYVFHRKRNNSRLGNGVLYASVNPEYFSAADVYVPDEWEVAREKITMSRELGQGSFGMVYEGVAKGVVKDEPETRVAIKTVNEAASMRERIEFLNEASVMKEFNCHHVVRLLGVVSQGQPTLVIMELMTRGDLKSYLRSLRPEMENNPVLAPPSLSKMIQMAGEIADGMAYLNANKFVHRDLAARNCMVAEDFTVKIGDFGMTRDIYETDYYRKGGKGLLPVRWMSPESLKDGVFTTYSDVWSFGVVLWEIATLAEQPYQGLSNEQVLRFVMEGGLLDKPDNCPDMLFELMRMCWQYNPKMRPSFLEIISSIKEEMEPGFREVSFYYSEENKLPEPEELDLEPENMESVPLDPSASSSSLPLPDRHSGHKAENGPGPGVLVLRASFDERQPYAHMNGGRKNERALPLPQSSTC

With `COc1cc(Nc2nc(C)cc(Nc3cc(C4CC4)n[nH]3)n2)cc([N+](=O)[O-])c1` the IC50 was ≥ 5 µM.
